Laboratory results as given in US20240300948A1, “Heterocyclic Compounds As Kinase Inhibitors” (Incyte Corporation, priority 2023, published 2024).
pIC50: −log10 of the molar value.

Key:
[1] = molecular target: T1, pseudo-kinase domain (JH2, amino-acids 536-812 with 3 surface mutations W659A, W777A, F794H) of human V617F mutant JAK2 (Homo sapiens, UniProt O60674, F794H/V617F/W659A/W777A); assay: JAK2 LanthaScreen JH2-V617F binding assay; settings: 50 nM tracer, 1 hour at 25° C., read-out: JH2 BIND V617F IC50
T1 construct: pseudo-kinase domain (JH2, amino-acids 536-812 with 3 surface mutations W659A, W777A, F794H); His (C); Avi (biotinylated) (C); purchased BPS Bioscience 79498; host or cells: baculovirus expression system
Experimental: Example C. JAK2 LanthaScreen JH2-V617F Binding Assay
(§1) JAK2 JH2-V617F binding assay utilizes pseudo-kinase domain (JH2, amino-acids 536-812 with 3 surface mutations W659A, W777A, F794H) of human V617F mutant JAK2 expressed as C-terminal His-Avi-tagged, biotinylated protein in a baculovirus expression system (BPS Bioscience, Catalog #79498). The assay was conducted in black 384-well polystyrene plates in a final reaction volume of 20 μL. JAK2 JH2-V617F (0.26 nM) was incubated with compounds (100 nL serially diluted in DMSO) in the presence of 50 nM Fluorescent JAK2-JH2 Tracer (MedChem Express Catalog #HY-102055) and 0.25 nM Streptavidin-Tb cryptate (Cisbio Part #610SATLB) in assay buffer (50 mM Tris, pH=7.5, 10 mM MgCl2, 0.01% Brij-35, 0.1% BSA, 1 mM EGTA, 5% Glycerol and 5 mM DTT). Non-specific binding was accessed in the presence of 2 mM ATP. After incubation for 1 hour at 25° C., LanthaScreen signals were read on a PHERAstar FS plate reader (BMG LABTECH). Data was analyzed with IDBS XLfit and GraphPad Prism 5.0 software using a four parameter dose response curve to determine IC50 for each compound.

[2] = molecular target: T2, catalytic domain (JH1, amino acids 826-1132) of human JAK2 (Homo sapiens, UniProt O60674); assay: JAK2 LanthaScreen JH1 binding assay; settings: 50 nM tracer, 2 hours at 25° C., read-out: JH1 BIND IC50
T2 construct: catalytic domain (JH1, amino acids 826-1132) of human JAK2; FLAG (N); purchased Carna Biosciences 08-445-20N; host or cells: baculovirus expression system
Experimental: Example A. JAK2 LanthaScreen […] Binding Assay
JAK2 JH1 binding assay utilizes catalytic domain (JH1, amino acids 826-1132) of human JAK2 expressed as N-terminal FLAG-tagged, biotinylated protein in a baculovirus expression system (Carna Biosciences, Product #08-445-20N). The assay was conducted in black 384-well polystyrene plates in a final reaction volume of 20 μL. JAK2 JH1 (1.5 nM) was incubated with compounds (100 nL serially diluted in DMSO) in the presence of 50 nM fluorescent JAK2-JH1 tracer and 0.5 nM Streptavidin-Tb cryptate (Cisbio Part #610SATLB) in assay buffer (50 mM Tris, pH=7.5, 10 mM MgCl2, 0.01% Brij-35, 0.1% BSA, 1 mM EGTA, 5% Glycerol and 5 mM DTT). Non-specific binding was accessed in the presence of 2 mM ATP. After incubation for 2 hours at 25° C., LanthaScreen signals were read on a PHERAstar FS plate reader (BMG LABTECH). Data was analyzed with IDBS XLfit and GraphPad Prism 5.0 software using a four parameter dose response curve to determine IC50 for each compound.

[3] = molecular target: T3, pseudo-kinase domain (JH2, amino-acids 536-812 with 3 surface mutations W659A, W777A, F794H) of human Wild Type JAK2 (Homo sapiens, UniProt O60674, F794H/W659A/W777A); assay: JAK2 LanthaScreen JH2-WT binding assay; settings: 50 nM tracer, 1 hour at 25° C., read-out: JH2 BIND WT IC50
T3 construct: pseudo-kinase domain (JH2, amino-acids 536-812 with 3 surface mutations W659A, W777A, F794H); His (C); Avi (biotinylated) (C); purchased BPS Bioscience 79463; host or cells: baculovirus expression system
Experimental: Example B. JAK2 LanthaScreen JH2-WT Binding Assay
as §1, with “JH2-WT” for “JH2-V617F”, “Wild Type” for “V617F mutant”, “#79463).” for “#79498).”, “JH2-WT (0.145” for “JH2-V617F (0.26”

T3 sequence (O60674 536-812 W659A/W777A/F794H): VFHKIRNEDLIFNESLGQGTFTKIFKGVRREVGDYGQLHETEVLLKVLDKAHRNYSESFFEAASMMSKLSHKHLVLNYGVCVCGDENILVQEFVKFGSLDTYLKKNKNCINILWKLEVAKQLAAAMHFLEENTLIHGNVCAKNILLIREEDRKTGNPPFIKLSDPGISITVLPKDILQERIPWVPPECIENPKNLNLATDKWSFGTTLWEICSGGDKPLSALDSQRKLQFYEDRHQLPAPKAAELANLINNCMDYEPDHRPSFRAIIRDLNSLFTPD
T1 sequence (O60674 536-812 V617F/W659A/W777A/F794H): as the sequence (O60674 536-812 W659A/W777A/F794H) above, with V82F counted along it
T2 sequence (O60674 826-1132): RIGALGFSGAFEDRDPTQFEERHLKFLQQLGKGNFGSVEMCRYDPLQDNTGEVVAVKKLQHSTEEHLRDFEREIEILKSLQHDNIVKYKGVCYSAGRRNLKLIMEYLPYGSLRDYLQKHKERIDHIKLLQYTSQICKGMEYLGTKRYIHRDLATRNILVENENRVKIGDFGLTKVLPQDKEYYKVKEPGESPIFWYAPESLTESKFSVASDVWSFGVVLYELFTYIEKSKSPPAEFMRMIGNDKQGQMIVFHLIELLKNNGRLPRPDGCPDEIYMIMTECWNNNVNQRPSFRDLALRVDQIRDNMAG

Structure (SMILES) | pIC50 [1] | pIC50 [2] | pIC50 [3]
COC(=O)N[C@]1(C)CC[C@H](N2C(=O)NCc3cnc4[nH]c(-c5cnn(C)c5)c(-c5ccc6c(cnn6C(C)C)c5)c4c32)CC1 [Example 13, Methyl ((1s,4s)-4-(9-(1-isopropyl-1H-indazol-5-yl)-8-(1-methyl-1H-pyrazol-4-yl)-2-oxo-2,3,4,7-tetrahydro-1H-pyrrolo[3′,2′:5,6]pyrido[4,3-d]pyrimidin-1-yl)-1-methylcyclohexyl)carbamate] | 7.00 to 8.00 | < 6.00 | 7.00 to 8.00
COC(=O)N[C@@H]1CC[C@@H](N2C(=O)NCc3cnc4[nH]c(-c5cnn(C)c5)c(-c5cccc(F)c5)c4c32)C1 [Example 31, Methyl ((1R,3R)-3-(9-(3-fluorophenyl)-8-(1-methyl-1H-pyrazol-4-yl)-2-oxo-2,3,4,7-tetrahydro-1H-pyrrolo[3′,2′:5,6]pyrido[4,3-d]pyrimidin-1-yl)cyclopentyl) carbamate] | 6.30 to 7.00 | < 6.00 | 7.00 to 8.00
COC(=O)N[C@@H]1CC[C@@H](N2C(=O)NCc3cnc4[nH]c(-c5cnn(C)c5)c(-c5ccc(OC6CCOC6)cc5)c4c32)C1 (mixture of isomers) [Example 27, Methyl ((1R,3R)-3-(8-(1-methyl-1H-pyrazol-4-yl)-2-oxo-9-(4-((tetrahydrofuran-3-yl)oxy)phenyl)-2,3,4,7-tetrahydro-1H-pyrrolo[3′,2′:5,6]pyrido[4,3-d]pyrimidin-1-yl)cyclopentyl)ca rbamate] | 7.00 to 8.00 | 6.30 to 7.00 | 7.00 to 8.00
COC(=O)N[C@@H]1CC[C@@H](N2C(=O)NCc3cnc4[nH]c(-c5cnn(C)c5)c(-c5ccc6c(cnn6C6CCC6)c5)c4c32)C1 [Example 24, Methyl ((1R,3R)-3-(9-(1-cyclobutyl-1H-indazol-5-yl)-8-(1-methyl-1H-pyrazol-4-yl)-2-oxo-2,3,4,7-tetrahydro-1H-pyrrolo[3′,2′:5,6]pyrido[4,3-d]pyrimidin-1-yl)cyclopentyl) carbamate] | 7.00 to 8.00 | 6.30 to 7.00 | 7.00 to 8.00
CC(=O)N[C@H]1C[C@H](N2C(=O)NCc3cnc4[nH]c(-c5cnn(C)c5)c(-c5ccc6c(cnn6C(C)C)c5)c4c32)C1 [Example 2, N-((1r,3r)-3-(9-(1-Isopropyl-1H-indazol-5-yl)-8-(1-methyl-1H-pyrazol-4-yl)-2-oxo-2,3,4,7-tetrahydro-1H-pyrrolo[3′,2′:5,6]pyrido[4,3-d]pyrimidin-1-yl)cyclobutyl) acetamide] | 7.00 to 8.00 | < 6.00 | 7.00 to 8.00
CC(C)n1ncc2cc(-c3c(-c4cnn(C)c4)[nH]c4ncc5c(c34)N(C3CCN(C(=O)NCC(F)F)CC3)C(=O)NC5)ccc21 [Example 17, N-(2,2-Difluoroethyl)-4-(9-(1-isopropyl-1H-indazol-5-yl)-8-(1-methyl-1H-pyrazol-4-yl)-2-oxo-2,3,4,7-tetrahydro-1H-pyrrolo[3′,2′:5,6]pyrido[4,3-d]pyrimidin-1-yl)piperidine-1-carboxamide] | 7.00 to 8.00 | < 6.00 | 7.00 to 8.00
COC(=O)N[C@@H]1CC[C@@H](N2C(=O)NCc3cnc4[nH]c(-c5cnn(C)c5)c(-c5ccc6c(cnn6CC6CC6)c5)c4c32)C1 [Example 23, Methyl ((1R,3R)-3-(9-(1-(cyclopropylmethyl)-1H-indazol-5-yl)-8-(1-methyl-1H-pyrazol-4-yl)-2-oxo-2,3,4,7-tetrahydro-1H-pyrrolo[3′,2′:5,6]pyrido[4,3-d]pyrimidin-1-yl)cyclopentyl) carbamate] | 7.00 to 8.00 | 6.30 to 7.00 | ≥ 8.00
CC(C)COC(=O)N[C@@H]1CC[C@@H](N2C(=O)NCc3cnc4[nH]c(-c5cnn(C)c5)c(-c5ccc6c(cnn6C(C)C)c5)c4c32)C1 [Example 12, Isobutyl ((1R,3R)-3-(9-(1-isopropyl-1H-indazol-5-yl)-8-(1-methyl-1H-pyrazol-4-yl)-2-oxo-2,3,4,7-tetrahydro-1H-pyrrolo[3′,2′:5,6]pyrido[4,3-d]pyrimidin-1-yl)cyclopentyl) carbamate] | 7.00 to 8.00 | < 6.00 | 7.00 to 8.00
COC(=O)N[C@@H]1CC[C@@H](N2C(=O)NCc3cnc4[nH]c(-c5cnn(C)c5)c(-c5ccc6c(cnn6CCF)c5)c4c32)C1 [Example 25, Methyl ((1R,3R)-3-(9-(1-(2-fluoroethyl)-1H-indazol-5-yl)-8-(1-methyl-1H-pyrazol-4-yl)-2-oxo-2,3,4,7-tetrahydro-1H-pyrrolo[3′,2′:5,6]pyrido [4,3-d]pyrimidin-1-yl)cyclopentyl) carbamate] | 7.00 to 8.00 | 6.30 to 7.00 | ≥ 8.00
COC(=O)N[C@H]1C[C@H](N2C(=O)NCc3cnc4[nH]c(-c5cnn(C)c5)c(-c5ccc6c(cnn6C(C)C)c5)c4c32)C1 [Example 1, Methyl ((1r,3r)-3-(9-(1-isopropyl-1H-indazol-5-yl)-8-(1-methyl-1H-pyrazol-4-yl)-2-oxo-2,3,4,7-tetrahydro-1H-pyrrolo[3′,2′:5,6]pyrido[4,3-d]pyrimidin-1-yl)cyclobutyl)carbamate] | ≥ 8.00 | 6.30 to 7.00 | ≥ 8.00
COC(=O)N[C@H]1C[C@H](N2C(=O)NC(C)c3cnc4[nH]c(-c5cnn(C)c5)c(-c5ccc6c(cnn6C(C)C)c5)c4c32)C1 (mixture of isomers) [Example 38, Methyl ((1r,3r)-3-(9-(1-isopropyl-1H-indazol-5-yl)-4-methyl-8-(1-methyl-1H-pyrazol-4-yl)-2-oxo-2,3,4,7-tetrahydro-1H-pyrrolo[3′,2′:5,6]pyrido[4,3-d]pyrimidin-1-yl)cyclobutyl)carbamate] | 7.00 to 8.00 | < 6.00 | 7.00 to 8.00
COC(=O)N[C@H]1C[C@H](N2C(=O)NCc3cnc4[nH]c(C5CC5)c(-c5ccc6c(cnn6C(C)C)c5)c4c32)C1 [Example 36, Methyl ((1r,3r)-3-(8-cyclopropyl-9-(1-isopropyl-1H-indazol-5-yl)-2-oxo-2,3,4,7-tetrahydro-1H-pyrrolo[3′,2′:5,6]pyrido [4,3-d]pyrimidin-1-yl)cyclobutyl) carbamate] | 7.00 to 8.00 | < 6.00 | 7.00 to 8.00
COC(=O)N[C@H]1C[C@@H](N2C(=O)NCc3cnc4[nH]c(-c5cnn(C)c5)c(-c5ccc6c(cnn6C(C)C)c5)c4c32)C1 [Example 4, Methyl ((1s,3s)-3-(9-(1-isopropyl-1H-indazol-5-yl)-8-(1-methyl-1H-pyrazol-4-yl)-2-oxo-2,3,4,7-tetrahydro-1H-pyrrolo[3′,2′:5,6]pyrido[4,3-d]pyrimidin-1-yl)cyclobutyl) carbamate] | 7.00 to 8.00 | < 6.00 | 7.00 to 8.00
